Data: US20110230472A1, “RING-FUSED AZOLE DERIVATIVE HAVING PI3K-INHIBITING ACTIVITY” (Shionogi & Co., Ltd., priority 2008, published 2011)

Molecular target: PI-3 kinase γ (Homo sapiens, UniProt P48736)
Assay: PI3Kγ inhibitory activity, PI3-kinase HTRF assay (inhibition ratio)
Format: biochemical
Settings: 0.5 h; compound at 10 μmol/L
Method in brief: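 Single-concentration inhibition ratio (50 or 10 μmol/L compound) versus no-compound (100%) and no-enzyme (0%) wells. Reaction: PI-3 kinase γ, PIP2, ATP, MgCl2/DTT, 30 min at RT after 10 min preincubation. Read-out: HTRF 665/620 nm after 18 h detection.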

Chain of PI-3 kinase γ (P48736 whole entry): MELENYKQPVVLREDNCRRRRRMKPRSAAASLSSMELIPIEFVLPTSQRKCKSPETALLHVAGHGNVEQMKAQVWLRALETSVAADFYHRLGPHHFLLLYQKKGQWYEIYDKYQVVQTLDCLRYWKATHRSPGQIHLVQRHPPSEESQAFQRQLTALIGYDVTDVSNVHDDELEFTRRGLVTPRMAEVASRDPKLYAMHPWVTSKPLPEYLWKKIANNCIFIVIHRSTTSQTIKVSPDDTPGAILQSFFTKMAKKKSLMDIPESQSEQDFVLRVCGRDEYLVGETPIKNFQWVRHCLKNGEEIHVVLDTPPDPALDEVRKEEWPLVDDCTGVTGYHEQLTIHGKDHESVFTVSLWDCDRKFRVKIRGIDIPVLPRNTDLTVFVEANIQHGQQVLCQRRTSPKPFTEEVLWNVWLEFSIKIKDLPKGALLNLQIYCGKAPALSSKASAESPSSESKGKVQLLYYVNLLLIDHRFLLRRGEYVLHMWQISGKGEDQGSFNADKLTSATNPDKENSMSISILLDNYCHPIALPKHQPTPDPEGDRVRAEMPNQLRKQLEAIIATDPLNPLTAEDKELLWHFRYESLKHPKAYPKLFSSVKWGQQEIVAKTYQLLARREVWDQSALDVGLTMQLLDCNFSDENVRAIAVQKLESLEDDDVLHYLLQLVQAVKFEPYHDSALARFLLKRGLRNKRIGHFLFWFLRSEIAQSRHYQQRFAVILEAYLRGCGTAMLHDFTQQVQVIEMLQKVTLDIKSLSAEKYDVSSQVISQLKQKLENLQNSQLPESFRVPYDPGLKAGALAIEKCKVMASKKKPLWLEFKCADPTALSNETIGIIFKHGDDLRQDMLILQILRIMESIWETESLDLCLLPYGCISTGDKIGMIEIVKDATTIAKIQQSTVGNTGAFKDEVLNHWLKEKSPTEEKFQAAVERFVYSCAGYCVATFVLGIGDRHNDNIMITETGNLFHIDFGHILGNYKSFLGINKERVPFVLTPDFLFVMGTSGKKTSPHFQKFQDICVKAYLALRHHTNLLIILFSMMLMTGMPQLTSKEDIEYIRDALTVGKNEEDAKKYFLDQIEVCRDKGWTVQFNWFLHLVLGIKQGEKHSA

inhibition at 10 µM | SMILES
≥ 95% | CC(C)N(C)C(=O)c1cc(C(=O)Nc2cc3n(n2)CCN3c2ccc3c(c2)CCN(C)C3=O)cs1 [Compound I-433]
≥ 95% | CN1CCc2cc(N3CCn4nc(NC(=O)c5csc(S(=O)(=O)N6CCCC6)c5)cc43)ccc2C1=O [Compound I-436]
≥ 95% | CNS(=O)(=O)c1cc(C(=O)Nc2cc3n(n2)CCN3c2ccc3c(c2)CCN(C)C3=O)cs1 [Compound I-437]
86% | CN1CCc2cc(N3CCn4nc(NC(=O)c5csc(C(=O)NC(C)(C)C)c5)cc43)ccc2C1=O [Compound I-438]
≥ 95% | CN1CCc2cc(N3CCn4nc(NC(=O)c5csc(C(=O)NCC(C)(C)C)c5)cc43)ccc2C1=O [Compound I-439]
92% | CC(=O)c1ccc(C(=O)Nc2cc3n(n2)CCN3c2ccc3c(c2)CCN(C)C3=O)s1 [Compound I-440]
88% | CC(C)NC(=O)c1ccccc1NC(=O)Nc1nc2c(s1)CN(C(=O)OCc1ccccc1)CC2 [Compound I-441]
84% | Cc1ccsc1C(=O)Nc1cc2n(n1)CCN2c1ccc2c(c1)CCN(C)C2=O [Compound I-444]
89% | CN1CCc2cc(N3CCn4nc(NC(=O)c5sccc5Cl)cc43)ccc2C1=O [Compound I-445]
≥ 95% | Cc1ncsc1C(=O)Nc1cc2n(n1)CCN2c1ccc2c(c1)CCN(C)C2=O [Compound I-449]
≥ 95% | CN1CCc2cc(N3CCn4nc(NC(=O)C(=O)c5cccs5)cc43)ccc2C1=O [Compound I-450]
90% | CN(C)C(=O)c1ccc(C(=O)Nc2cc3n(n2)CCN3c2ccc3c(c2)CCN(C)C3=O)s1 [Compound I-451]
76% | CN1CCc2cc(N3CCn4nc(NC(=O)N5CCCC5)cc43)ccc2C1=O [Compound I-453]
87% | COc1cc(N2CCc3nc(NC(=O)c4ccc(C)o4)sc3C2)nc(OC)n1 [Compound I-456]
88% | CCOc1ccc(C(=O)Nc2nc3c(s2)CN(c2cc(OC)nc(OC)n2)CC3)o1 [Compound I-457]
92% | COc1cc(N2CCc3nc(NC(=O)c4ccc(C)s4)sc3C2)nc(OC)n1 [Compound I-458]
92% | COc1cc(N2CCc3nc(NC(=O)c4ccsc4)sc3C2)nc(OC)n1 [Compound I-459]
95% | CN1CCc2cc(N3CCn4nc(NC(=O)c5cccc(O)c5)cc43)ccc2C1=O [Compound I-461]
≥ 95% | COc1cccc(C(=O)Nc2cc3n(n2)CCN3c2ccc3c(c2)CCN(C)C3=O)c1 [Compound I-462]
≥ 95% | CC(C)Oc1cccc(C(=O)Nc2cc3n(n2)CCN3c2ccc3c(c2)CCN(C)C3=O)c1 [Compound I-463]
≥ 95% | CN1CCc2cc(N3CCn4nc(NC(=O)c5cccc(F)c5)cc43)ccc2C1=O [Compound I-464]
≥ 95% | CN1CCc2cc(N3CCn4nc(NC(=O)c5cccc(C(=O)OC(C)(C)C)c5)cc43)ccc2C1=O [Compound I-465]
83% | CN1CCc2cc(N3CCn4nc(NC(=O)c5cccc(NC(=O)OC(C)(C)C)c5)cc43)ccc2C1=O [Compound I-466]
≥ 95% | COCn1ccc(C(=O)Nc2cc3n(n2)CCN3c2ccc3c(c2)CCN(C)C3=O)n1 [Compound I-467]

inhibition at 10 µM | SMILES
≥ 95% | CC(Oc1cccc(C(=O)Nc2cc3n(n2)CCN3c2ccc3c(c2)CCN(C)C3=O)c1)C(N)=O (centres unmarked) [Compound I-468]
85% | CN1CCc2cc(N3CCn4nc(NC(=O)c5cccc(OC(C)(C)C(=O)OC(C)(C)C)c5)cc43)ccc2C1=O [Compound I-469]
79% | CC(C)NC(=O)Nc1cccc(C(=O)Nc2cc3n(n2)CCN3c2ccc3c(c2)CCN(C)C3=O)c1 [Compound I-470]
91% | CC(=O)Nc1nc2ccn(-c3cccc(Cl)c3)c2s1 [Compound I-471]
≥ 95% | CN1CCc2cc(N3CCn4nc(NC(=O)c5cccc(C(=O)O)c5)cc43)ccc2C1=O [Compound I-472]
≥ 95% | CN1CCc2cc(N3CCn4nc(NC(=O)c5cccc(N)c5)cc43)ccc2C1=O [Compound I-473]
≥ 95% | CN1CCc2cc(N3CCn4nc(NC(=O)c5cccc(OC(C)(C)C(=O)O)c5)cc43)ccc2C1=O [Compound I-474]
94% | CCCOc1ccc(C(=O)Nc2cc3n(n2)CCN3c2ccc3c(c2)CCN(C)C3=O)cc1 [Compound I-476]
82% | CCCCOc1ccc(C(=O)Nc2cc3n(n2)CCN3c2ccc3c(c2)CCN(C)C3=O)cc1 [Compound I-477]
86% | CN1CCc2cc(N3CCn4nc(NC(=O)c5ccc(NC(=O)OC(C)(C)C)cc5)cc43)ccc2C1=O [Compound I-480]
92% | CN1CCc2cc(N3CCn4nc(NC(=O)c5ccc(S(C)(=O)=O)cc5)cc43)ccc2C1=O [Compound I-481]
≥ 95% | COC(=O)Nc1ccccc1C(=O)Nc1cc2n(n1)CCN2c1ccc2c(c1)CCN(C)C2=O [Compound I-482]
≥ 95% | COc1ccc(C(=O)N2CCc3nc(NC(=O)Nc4ccccc4C(=O)NC(C)C)sc3C2)cc1 [Compound I-483]
≥ 95% | COc1cccc(C(=O)N2CCc3nc(NC(=O)Nc4ccccc4C(=O)NC(C)C)sc3C2)c1 [Compound I-484]
79% | COc1ccccc1C(=O)N1CCc2nc(NC(=O)Nc3ccccc3C(=O)NC(C)C)sc2C1 [Compound I-485]
88% | CC(C)NC(=O)c1ccccc1NC(=O)Nc1nc2c(s1)CN(C(=O)c1ccccc1)CC2 [Compound I-488]
≥ 95% | CN1CCc2cc(N3CCn4nc(NC(=O)c5ccc(N)cc5)cc43)ccc2C1=O [Compound I-489]
91% | CN1CCc2cc(N3CCn4nc(NC(=O)c5ccccc5NC(=O)OC(C)(C)C)cc43)ccc2C1=O [Compound I-493]
78% | CNc1ccccc1C(=O)Nc1cc2n(n1)CCN2c1ccc2c(c1)CCN(C)C2=O [Compound I-494]
≥ 95% | CC(C)NC(=O)Cc1cc(C(=O)Nc2cc3n(n2)CCN3c2ccc3c(c2)CCN(C)C3=O)cs1 [Compound I-495]
≥ 95% | CCCNC(=O)Cc1cc(C(=O)Nc2cc3n(n2)CCN3c2ccc3c(c2)CCN(C)C3=O)cs1 [Compound I-496]
81% | CN1CCc2cc(N3CCn4nc(NC(=O)c5ccccc5N)cc43)ccc2C1=O [Compound I-500]
81% | CCOC(=O)CNC(=O)Nc1cc2n(n1)CCN2c1ccc2c(c1)CCN(C)C2=O [Compound I-501]
84% | CN1CCc2cc(N3CCn4nc(NC(=O)[C@@H]5CCC(=O)N5)cc43)ccc2C1=O [Compound I-506]

inhibition at 10 µM | SMILES
75% | CC(C)NC(=O)c1ccccc1NC(=O)Nc1nc2c(s1)CN(C(=O)c1cccc(Cl)c1)CC2 [Compound I-511]
76% | Cc1cccc(C(=O)N2CCc3nc(NC(=O)Nc4ccccc4C(=O)NC(C)C)sc3C2)c1 [Compound I-514]
85% | Cc1ccc(C(=O)N2CCc3nc(NC(=O)Nc4ccccc4C(=O)NC(C)C)sc3C2)cc1 [Compound I-515]
94% | CN1CCc2cc(N3CCn4nc(NC(=O)NCC(=O)O)cc43)ccc2C1=O [Compound I-522]
92% | CN1CCc2cc(N3CCn4nc(NC(=O)c5ccc(C(=O)O)cc5)cc43)ccc2C1=O [Compound I-524]
94% | CN1CCc2cc(N3CCn4nc(NC(=O)c5cnc(N6CCC[C@H]6C(=O)OC(C)(C)C)s5)cc43)ccc2C1=O [Compound I-525]
90% | CCCNS(=O)(=O)c1ccc(C(=O)Nc2cc3n(n2)CCN3c2ccc3c(c2)CCN(C)C3=O)cc1 [Compound I-526]
79% | CC(C)NS(=O)(=O)c1ccc(C(=O)Nc2cc3n(n2)CCN3c2ccc3c(c2)CCN(C)C3=O)cc1 [Compound I-527]
76% | COc1cc(N2CCc3nc(NC(=O)N4CC(C(=O)NC(C)C)C4)sc3C2)nc(OC)n1 [Compound I-528]
82% | COc1cc(N2CCc3nc(NC(=O)C4CN(C(=O)OC(C)(C)C)C4)sc3C2)nc(OC)n1 [Compound I-529]
92% | CN1CCc2cc(N3CCn4nc(NC(=O)NCCC(=O)OC(C)(C)C)cc43)ccc2C1=O [Compound I-530]
75% | CC(=O)Nc1ncc(C(=O)Nc2cc3n(n2)CCN3c2ccc3c(c2)CCN(C)C3=O)s1 [Compound I-531]
95% | CC(C)CC(=O)Nc1ncc(C(=O)Nc2cc3n(n2)CCN3c2ccc3c(c2)CCN(C)C3=O)s1 [Compound I-533]
91% | CC(C)CNC(=O)c1ccc(C(=O)Nc2cc3n(n2)CCN3c2ccc3c(c2)CCN(C)C3=O)cc1 [Compound I-534]
≥ 95% | CN1CCc2cc(N3CCn4nc(NC(=O)c5cnc(N6CCC[C@H]6C(=O)O)s5)cc43)ccc2C1=O [Compound I-536]
87% | CN1CCc2cc(N3CCn4nc(NC(=O)NCCC(=O)O)cc43)ccc2C1=O [Compound I-537]
94% | CC(C)CCNC(=O)CCNC(=O)Nc1cc2n(n1)CCN2c1ccc2c(c1)CCN(C)C2=O [Compound I-538]
≥ 95% | CN(C)C(=O)Nc1cc2n(n1)CCN2c1ccc2c(c1)CCN(C)C2=O [Compound I-539]
86% | COc1cc(N2CCc3nc(NC(=O)NCC4(C(=O)NC(C)C)CC4)sc3C2)nc(OC)n1 [Compound I-546]
≥ 95% | COc1cc(N2CCc3nc(NC(=O)NCC(C)C(=O)NC(C)C)sc3C2)nc(OC)n1 (centres unmarked) [Compound I-547]
≥ 95% | COCCOc1ccc(C(=O)Nc2cc3n(n2)CCN3c2ccc3c(c2)CCN(C)C3=O)cc1 [Compound I-549]
81% | CC(C)NC(=O)c1ccccc1NC(=O)Nc1nc2c(s1)CN(C(=O)c1ccc(O)cc1)CC2 [Compound I-550]
84% | CC(C)CCOc1ccc(C(=O)Nc2cc3n(n2)CCN3c2ccc3c(c2)CCN(C)C3=O)cc1 [Compound I-551]
